This is an account of results in PMC12472352, “The Activation of Cytochrome P450 2C9 Is Facilitated by the Coenzyme Forms of Vitamin B2” (Molecules, 2025).

Molecules are shown by their SMILES.

The target in data set [1] is T1, cytochrome P450 2C9 (CYP2C9) (Homo sapiens, UniProt P11712). Briefly: amperometric titration (KM) on CYP2C9 + FMN electrode; […]'-hydroxydiclofenac formation by square-wave voltammetry. Format: biochemical.
Data set [2] deals with T1, cytochrome P450 2C9 (CYP2C9). Briefly: electrochemical diclofenac […]'-hydroxylation by purified CYP2C9 with FMN ([…]); relative activity […]. Format: biochemical.
Data set [3] shares this target. Description: UV-vis absorption spectral titration (Soret peak) of purified recombinant CYP2C9; also electrochemical activation. The data set is classed as binding.

T1 sequence (P11712 whole entry): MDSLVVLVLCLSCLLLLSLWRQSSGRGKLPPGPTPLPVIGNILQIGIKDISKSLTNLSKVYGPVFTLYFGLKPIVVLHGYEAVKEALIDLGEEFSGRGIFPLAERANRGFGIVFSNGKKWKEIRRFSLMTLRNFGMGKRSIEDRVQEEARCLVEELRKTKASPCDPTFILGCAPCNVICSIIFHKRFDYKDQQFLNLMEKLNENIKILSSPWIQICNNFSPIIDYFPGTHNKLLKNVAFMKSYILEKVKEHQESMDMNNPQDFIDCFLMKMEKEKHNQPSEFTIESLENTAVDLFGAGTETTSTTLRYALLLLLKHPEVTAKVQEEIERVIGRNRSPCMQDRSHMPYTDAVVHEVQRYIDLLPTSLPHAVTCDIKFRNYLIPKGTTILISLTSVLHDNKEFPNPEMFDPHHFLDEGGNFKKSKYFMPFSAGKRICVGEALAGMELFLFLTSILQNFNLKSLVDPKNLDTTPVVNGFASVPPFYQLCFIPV

Take `O=C(O)Cc1ccccc1Nc1c(Cl)cccc1Cl` [diclofenac, 2-[2-(2,6-dichloroanilino)-phenyl]acetic acid]: the “KM, M” value in data set [1] is “(5.49 ± 0.52) ×10^−5 M”.

Turning to `Cc1cc2nc3c(=O)[nH]c(=O)nc-3n(C[C@H](O)[C@H](O)[C@H](O)COP(=O)(O)O)c2cc1C` [FMN], the “Relative Activity, %” value in data set [2] is reported as 113 ± 6%.

Regarding `Cc1cc2nc3c(=O)[nH]c(=O)nc-3n(C[C@H](O)[C@H](O)[C@H](O)COP(=O)(O)OP(=O)(O)OC[C@H]3O[C@@H](n4cnc5c(N)ncnc54)[C@H](O)[C@@H]3O)c2cc1C` [FAD], in data set [3], the dissociation constant Kd was 174 ± 52 µM.

By Kd is commonly meant a measure of binding affinity in units of concentration.
